Read-outs that look alike come from different tables or passages of the source.
Tests used:
M3 muscarinic receptor = target: T1, M3 muscarinic receptor (Rattus norvegicus, UniProt P08483); test: [3H]-N-methylscopolamine radioligand binding assay, rat submandibular gland membranes; parameters: Receptor Binding Assay Selectivity: reference not given here
T1 construct: Submandibular glands and heart were isolated and placed in ice cold homogenising buffer; from tissue; host or cells: rat submandibular gland membrane homogenate
T1 sequence (P08483 whole entry): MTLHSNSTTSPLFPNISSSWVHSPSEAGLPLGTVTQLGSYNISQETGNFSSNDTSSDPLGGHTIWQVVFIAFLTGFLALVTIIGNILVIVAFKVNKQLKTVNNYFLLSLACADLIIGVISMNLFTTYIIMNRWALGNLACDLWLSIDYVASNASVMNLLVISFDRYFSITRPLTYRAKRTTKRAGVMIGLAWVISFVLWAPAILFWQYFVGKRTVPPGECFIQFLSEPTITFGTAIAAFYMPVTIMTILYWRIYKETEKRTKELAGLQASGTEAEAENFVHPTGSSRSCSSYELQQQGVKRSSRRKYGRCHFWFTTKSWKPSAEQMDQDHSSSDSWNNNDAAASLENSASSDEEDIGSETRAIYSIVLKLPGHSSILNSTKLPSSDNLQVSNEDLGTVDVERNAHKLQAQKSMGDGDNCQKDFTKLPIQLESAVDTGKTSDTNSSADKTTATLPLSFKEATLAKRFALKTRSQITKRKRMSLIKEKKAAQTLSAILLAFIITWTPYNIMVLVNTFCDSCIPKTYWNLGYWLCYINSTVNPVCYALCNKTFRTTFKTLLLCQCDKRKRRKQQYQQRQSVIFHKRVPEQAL

isolated rat bladder = test: tissue or blood; format: cell-based; settings: rat bladder strips, antagonism of carbachol contraction
M2 muscarinic receptor = target: T2, M2 muscarinic receptor (Rattus norvegicus, UniProt P10980); test: [3H]-N-methylscopolamine radioligand binding assay, rat heart membranes
T2 construct: Submandibular glands and heart were isolated and placed in ice cold homogenising buffer; from tissue; host or cells: rat heart membrane homogenate
T2 sequence (P10980 1-466): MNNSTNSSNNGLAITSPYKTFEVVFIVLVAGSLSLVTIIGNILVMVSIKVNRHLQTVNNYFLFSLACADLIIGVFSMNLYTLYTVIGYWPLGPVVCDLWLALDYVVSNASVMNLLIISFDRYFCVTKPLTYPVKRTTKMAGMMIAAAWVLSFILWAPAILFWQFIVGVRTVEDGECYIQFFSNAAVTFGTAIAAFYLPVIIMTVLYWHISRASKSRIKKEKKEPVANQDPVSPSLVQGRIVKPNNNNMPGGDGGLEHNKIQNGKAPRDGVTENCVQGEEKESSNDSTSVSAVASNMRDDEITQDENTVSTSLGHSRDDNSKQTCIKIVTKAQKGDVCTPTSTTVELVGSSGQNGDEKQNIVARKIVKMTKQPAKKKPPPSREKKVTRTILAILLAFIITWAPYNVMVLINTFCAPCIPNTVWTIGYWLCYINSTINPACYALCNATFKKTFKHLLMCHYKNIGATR

[1] = Table III, rat submandibular gland, [3H]NMS, read-out: M3 Ki (nm)
[2] = Table III, read-out: Rat Bladder pKB (converted)
[3] = Table III, rat heart, [3H]NMS, read-out: M2 Ki (nm)
[4] = Table III, rat heart, [3H]NMS, read-out: M2 pKi (converted)
[5] = Table II, rat submandibular gland, [3H]NMS, read-out: Receptor Binding Assay Ki (nM) M 3
[6] = Table II, read-out: Functional Assay KB
[7] = Table II, rat heart, [3H]NMS, read-out: Receptor Binding Assay Ki (nM) M2
[8] = Table III, rat submandibular gland, [3H]NMS, read-out: M3 Pki (converted)
[9] = Receptor Binding Assay Ki (nM) M 3

| SMILES | Ki (M3 muscarinic receptor; [1]) | Kb (isolated rat bladder; [2]) | Ki (M2 muscarinic receptor; [3]) | also measured |
| --- | --- | --- | --- | --- |
| O=C(NC1C2CN(Cc3ccc(Br)cc3)CC21)C(O)(c1ccccc1)C1CCCCC1 (stereo not drawn) [Compound No. 24, (1α,5α,6α)-6-N-(3-azabicyclo[3.1.0]hexyl-3-(4-bromobenzyl))-2-cyclohexyl-2-hydroxy-2-phenyl acetamide] | 490 nM | 3800 nM | > 1000 nM | – |
| O=C(NC1C2CN(Cc3c(F)cccc3F)CC21)C(O)(c1ccccc1)C1CCCCC1 (stereo not drawn) [Compound No. 25, (1α,5α,6α)-6-N-(3-azabicyclo[3.1.0]hexyl-3-(2,6-difluorobenzyl))-2-cyclohexyl-2-hydroxy-2-phenyl acetamide] | 1700 nM | 288 nM | > 1000 nM | – |
| C#CCN1CC2C(C1)C2NC(=O)C(O)(c1ccccc1)C1CCCCC1 (stereo not drawn) [Compound No. 35, (1α,5α,6α)-6-N-(3-azabicyclo[3.1.0]hexyl-3-(2-propargyl))-2-cyclohexyl-2-hydroxy-2-phenyl acetamide] | 429 nM | 24.5 nM | 1180 nM | Ki (M2 muscarinic receptor; [4]): > 1000 nM |
| O=C(N[C@H]1[C@@H]2CN(C3CC3)C[C@@H]21)C(O)(c1ccccc1)C1CCCCC1 (stereo partly drawn) [Compound No. 38, (1α,5α,6α)-6-N-(3-azabicyclo[3.1.0]hexyl-3-cyclopropyl)-2-cyclohexyl-2-hydroxy-2-phenyl acetamide] | 1560 nM | 288 nM | > 1000 nM | – |
| CC(C)=CCCN1C[C@@H]2[C@H](C1)[C@H]2NC(=O)C(O)(c1ccccc1)C1CCCCC1 (stereo partly drawn) [Compound No. 41, (1α,5α,6α)-6-N-(3-azabicyclo[3.1.0]hexyl-3-(4-methyl-3-pentenyl))-2-cyclohexyl-2-hydroxy-2-phenyl acetamide] | 47 nM | 20.4 nM | 2940 nM | Ki (M3 muscarinic receptor; [5]): 47 nM; Receptor Binding Assay Selectivity (M3 muscarinic receptor; Table II, ratio M2 Ki / M3 Ki): 62.64; Kb (isolated rat bladder; [6]): 32.4 nM; Ki (M2 muscarinic receptor; [7]): 2940 nM |
| O=C(N[C@H]1[C@@H]2CN(Cc3ccc4c(c3)OCO4)C[C@@H]21)C(O)(c1ccccc1)C1CCCCC1 (stereo partly drawn) [Compound No. 42, (1α,5α,6α)-6-N-(3-azabicyclo[3.1.0]hexyl-3-(3,4-methylenedioxybenzyl))-2-cyclohexyl-2-hydroxy-2-phenyl acetamide] | 55 nM | 75.9 nM | 2200 nM | Ki (M3 muscarinic receptor; [8]): 56.2 nM |
| Cc1ccc(S(=O)(=O)NC(=O)N2C[C@@H]3[C@H](C2)[C@H]3NC(=O)C(O)(c2ccccc2)C2CCCCC2)cc1 (stereo partly drawn) [Compound No. 49, (1α,5α,6α)-6-N-(3-azabicyclo[3.1.0]hexyl-3-(4-methylphenyl-1-sulphonamide)urea)-2-cyclohexyl-2-hydroxy-2-phenyl acetamide] | 1000 nM | 631 nM | > 1000 nM | – |
| Cc1ccc(C(O)(C(=O)NC2C3CN(Cc4ccccc4)CC32)C2CCCCC2)cc1 (stereo not drawn) [Compound No. 50, (1α,5α,6α)-6-N-(3-azabicyclo[3.1.0]hexyl-3-benzyl)-2-cyclohexyl-2-hydroxy-2-(4-methylphenyl)acetamide] | 1200 nM | 138 nM | > 1000 nM | – |
| O=C(N[C@H]1[C@@H]2CN(Cc3ccccc3)C[C@@H]21)C(O)(c1ccc(Oc2ccccc2)cc1)C1CCCCC1 (stereo partly drawn) [Compound No. 52, (1α,5α,6α)-6-N-(3-azabicyclo[3.1.0]hexyl-3-benzyl)-2-cyclohexyl-2-hydroxy-2-(4-phenoxyphenyl)acetamide] | 370 nM | 3090 nM | > 1000 nM | – |
| COc1ccc(C(O)(C(=O)NC2C3CN(CCC=C(C)C)CC32)C2CCCCC2)cc1 (stereo not drawn) [Compound No. 57, (1α,5α,6α)-6-N-(3-azabicyclo[3.1.0]hexyl-3-(4-methyl-3-pentenyl))-2-cyclohexyl-2-hydroxy-2-(4-methoxyphenyl)acetamide] | 240 nM | 1860 nM | > 1000 nM | – |
| O=C(N[C@H]1[C@@H]2CN(Cc3ccccc3)C[C@@H]21)C(O)(c1ccccc1)C1CCCC1 (some centres unmarked) [Compound No. 64] | – | 27.5 nM | 3000 nM | Ki (M3 muscarinic receptor): 68 nM; Ki (M2 muscarinic receptor; [4]): 2510 nM |
| CC(C)=CCCN1CC2C(C1)C2NC(=O)C(O)(c1ccccc1)C1CCCC1 (stereo not drawn) [Compound No. 65, (1α,5α,6α)-6-N-(3-azabicyclo[3.1.0]hexyl-3-(4-methyl-3-pentenyl))-2-cyclopentyl-2-hydroxy-2-phenyl acetamide] | 33 nM | 3.98 nM | 1370 nM | Ki (M3 muscarinic receptor; [5]): 33 nM; Receptor Binding Assay Selectivity (M3 muscarinic receptor; Table II, ratio M2 Ki / M3 Ki): 41.52; Ki (M3 muscarinic receptor; [8]): 29.5 nM; Kb (isolated rat bladder; [6]): 4 nM; Ki (M2 muscarinic receptor; [7]): 1370 nM; Ki (M2 muscarinic receptor; [4]): 1350 nM |
| O=C(NC1C2CN(CCc3ccc4c(c3)OCO4)CC21)C(O)(c1ccccc1)C1CCCC1 (centres unmarked) [Compound No. 66] | – | 3.24 nM | 182 nM | Receptor Binding Assay Selectivity (M3 muscarinic receptor): 12.88; Ki (M3 muscarinic receptor; M3 Ki (nm)): 18.4 nM; Ki (M3 muscarinic receptor; M3 Pki): 15.5 nM; Ki (M3 muscarinic receptor; [9]): 18.4 nM; Kb (isolated rat bladder; [6]): 5 nM; Ki (M2 muscarinic receptor; [7]): 237 nM; Ki (M2 muscarinic receptor; [4]): 115 nM |
| O=C(NC1C2CN(CCc3ccccc3)CC21)C(O)(c1ccccc1)C1CCCC1 (stereo not drawn) [Compound No. 67, (1α,5α,6α)-6-N-(3-azabicyclo[3.1.0]hexyl-3-(2-phenylethyl))-2-cyclopentyl-2-hydroxy-2-phenyl acetamide] | – | 38 nM | 1420 nM | Ki (M3 muscarinic receptor; [8]): 38.9 nM |
| O=C(NC1C2CN(Cc3ccccc3)CC21)C(O)(c1ccccc1)C1CCCCCC1 (stereo not drawn) [Compound No. 72, (1α,5α,6α)-6-N-(3-azabicyclo[3.1.0]hexyl-3-benzyl)-2-cycloheptyl-2-hydroxy-2-phenyl acetamide] | – | 66.1 nM | – | Ki (M3 muscarinic receptor; [8]): 20.9 nM; Ki (M2 muscarinic receptor; M2 Ki (nm)): 1530 nM |
| CC(C)=CCCN1C[C@@H]2[C@H](C1)[C@H]2NC(=O)[C@](O)(c1ccccc1)C1CCCC1 [Compound No. 81, (2R)-(1α,5α,6α)-6-N-(3-azabicyclo[3.1.0]hexyl-3-(4-methyl-3-pentenyl))-2-cyclopentyl-2-hydroxy-2-phenyl acetamide] | 12.4 nM | 11.2 nM | 564 nM | Ki (M3 muscarinic receptor; [5]): 12.4 nM; Receptor Binding Assay Selectivity (M3 muscarinic receptor; Table II, ratio M2 Ki / M3 Ki): 45.48; Ki (M3 muscarinic receptor; [8]): 11.5 nM; Kb (isolated rat bladder; [6]): 7.95 nM; Ki (M2 muscarinic receptor; [7]): 564 nM; Ki (M2 muscarinic receptor; [4]): 525 nM |
| O=C(N[C@H]1[C@@H]2CN(CCc3ccc4c(c3)OCO4)C[C@@H]21)[C@](O)(c1ccccc1)C1CCCC1 [Compound No. 82, (2R)-(1α,5α,6α)-6-N-(3-azabicyclo[3.1.0]hexyl-3-(3,4-methylenedioxyphenyl)ethyl)-2-cyclopentyl-2-hydroxy-2-phenyl acetamide] | – | 0.759 nM | 646 nM | Receptor Binding Assay Selectivity (M3 muscarinic receptor): 5; Ki (M3 muscarinic receptor; M3 Ki (nm)): 11.7 nM; Ki (M3 muscarinic receptor; [9]): 11.7 nM; Kb (isolated rat bladder; [6]): 9.12 nM; Ki (M2 muscarinic receptor; [7]): 646 nM |

Source: US7232835B2, “3,6-Disubstituted azabicyclo derivatives as muscarinic receptor antagonists” (Ranbaxy Laboratories Limited, priority 2002, dated 2007)
